Literature values in EP3878534A1, “EXTRACTION AND BACK-EXTRACTION OF HYDROPHOBIC COMPOUNDS USING DEEP EUTECTIC SOLVENT WITH TUNEABLE HYDROPHOBICITY” (Wageningen Universiteit, priority 2020, dated 2021).

Columns and labels:
[1] = octanol/water, individual compound

Log Poct (Pub Chem) [1] | Structure (SMILES) | pKa
3.20 | CC1CCC(C(C)C)C(O)C1 (racemic) [DL-Menthol, 2-isopropyl-5-methylcyclohexanol] | 
3.05 | CCCCCCCC(=O)O [Octanoic acid] | 

Structure (SMILES) | Log Poct (Pub Chem) [1] | pKa
CCCCCC(=O)O [Hexanoic acid] | 1.92 | 4.88
